Read-outs that look alike come from different tables or passages of the source.
Columns and labels:
[1] = molecular target: EGFR Del19/C797S (Homo sapiens, UniProt P00533, C797S/DEL746-750); test: Biochemical EGFR kinase inhibition assay (Lance Ultra TR-FRET), double mutant del19/C797S
In short: (§1)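 Step 1: compound in kinase buffer, 0.003–10 μM. Step 2: kinase reaction 1 h at room temperature. Step 4: TR-FRET read at 615/665 nm; IC50 calculated.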

[2] = molecular target: EGFR Del19/T790M/C797S (Homo sapiens, UniProt P00533, C797S/DEL746-750/T790M); test: Biochemical EGFR kinase inhibition assay (Lance Ultra TR-FRET), triple mutant del19/T790M/C797S
In short: as §1

[3] = molecular target: EGFR wildtype (WT) (Homo sapiens, UniProt P00533); test: Biochemical EGFR kinase inhibition assay (Lance Ultra TR-FRET), wildtype
In short: as §1

[4] = molecular target: EGFR L858R/C797S (Homo sapiens, UniProt P00533, C797S/L858R); test: Biochemical EGFR kinase inhibition assay (Lance Ultra TR-FRET), double mutant L858R/C797S
In short: as §1

[5] = molecular target: EGFR L858R/T790M/C797S (Homo sapiens, UniProt P00533, C797S/L858R/T790M); test: Biochemical EGFR kinase inhibition assay (Lance Ultra TR-FRET), triple mutant L858R/T790M/C797S
In short: as §1

[6] = read-out: IC50 Del19/C797S (nM), 100 μM ATP
[7] = read-out: IC50 Del19/T790M/C797S (nM), 100 μM ATP
[8] = read-out: IC50 WT (nM), 100 μM ATP
[9] = read-out: IC50 L858R/C797S (nM), 100 μM ATP
[10] = read-out: IC50 L858R/T790M/C797S (nM), 100 μM ATP
[11] = IC50 Del19/C797S (nM), 100 μM ATP
[12] = IC50 Del19/T790M/C797S (nM), 100 μM ATP
[13] = IC50 L858R/C797S (nM), 100 μM ATP
[14] = IC50 L858R/T790M/C797S (nM), 100 μM ATP
[15] = Km ATP, read-out: IC50 Del19/C797S (nM) Km ATP
[16] = Km ATP, read-out: IC50 Del19/T790M/C797S (nM) Km ATP
[17] = Km ATP, read-out: IC50 WT (nM) Km ATP
[18] = Km ATP, read-out: IC50 L858R/C797S (nM) Km ATP
[19] = Km ATP, read-out: IC50 L858R/T790M/C797S (nM) Km ATP
[20] = ATP at Km, read-out: IC50 Del19/C797S (nM), Km ATP
[21] = ATP at Km, read-out: IC50 Del19/T790M/C797S (nM), Km ATP
[22] = ATP at Km, read-out: IC50 WT (nM), Km ATP
[23] = ATP at Km, read-out: IC50 L858R/C797S (nM), Km ATP
[24] = ATP at Km, read-out: IC50 L858R/T790M/C797S (nM), Km ATP

EGFR L858R/T790M/C797S, sequence (P00533 25-1210 T790M/C797S/L858R): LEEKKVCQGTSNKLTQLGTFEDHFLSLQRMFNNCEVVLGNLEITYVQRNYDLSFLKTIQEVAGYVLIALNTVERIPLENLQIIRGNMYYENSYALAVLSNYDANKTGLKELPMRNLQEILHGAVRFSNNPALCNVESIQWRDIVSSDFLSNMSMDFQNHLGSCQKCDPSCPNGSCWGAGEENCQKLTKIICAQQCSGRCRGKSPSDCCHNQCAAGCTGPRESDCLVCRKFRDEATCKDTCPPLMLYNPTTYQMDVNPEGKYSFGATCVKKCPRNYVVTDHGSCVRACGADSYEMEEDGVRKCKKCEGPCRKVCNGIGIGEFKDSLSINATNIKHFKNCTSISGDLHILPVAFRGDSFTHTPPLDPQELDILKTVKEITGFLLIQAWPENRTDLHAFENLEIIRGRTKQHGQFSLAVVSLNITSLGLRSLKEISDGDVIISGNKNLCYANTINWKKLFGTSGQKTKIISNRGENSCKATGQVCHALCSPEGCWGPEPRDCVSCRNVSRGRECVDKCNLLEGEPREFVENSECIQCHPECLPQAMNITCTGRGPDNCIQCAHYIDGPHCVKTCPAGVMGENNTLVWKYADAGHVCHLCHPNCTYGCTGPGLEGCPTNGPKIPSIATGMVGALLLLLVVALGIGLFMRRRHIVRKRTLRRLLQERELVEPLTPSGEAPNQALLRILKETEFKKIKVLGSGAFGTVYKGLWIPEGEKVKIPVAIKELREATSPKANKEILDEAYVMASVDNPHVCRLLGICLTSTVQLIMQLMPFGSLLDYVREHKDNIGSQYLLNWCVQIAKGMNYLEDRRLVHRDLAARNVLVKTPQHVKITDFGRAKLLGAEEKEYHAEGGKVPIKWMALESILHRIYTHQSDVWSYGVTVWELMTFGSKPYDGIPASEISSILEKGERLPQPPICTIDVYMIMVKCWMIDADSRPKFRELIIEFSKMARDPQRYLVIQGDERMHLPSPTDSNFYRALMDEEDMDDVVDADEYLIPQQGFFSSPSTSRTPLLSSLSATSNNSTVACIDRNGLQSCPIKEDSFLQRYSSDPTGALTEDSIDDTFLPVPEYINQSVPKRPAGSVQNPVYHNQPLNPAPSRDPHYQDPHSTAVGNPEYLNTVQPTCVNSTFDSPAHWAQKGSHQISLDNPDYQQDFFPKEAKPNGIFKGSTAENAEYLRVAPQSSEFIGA
EGFR L858R/C797S, sequence (P00533 25-1210 C797S/L858R): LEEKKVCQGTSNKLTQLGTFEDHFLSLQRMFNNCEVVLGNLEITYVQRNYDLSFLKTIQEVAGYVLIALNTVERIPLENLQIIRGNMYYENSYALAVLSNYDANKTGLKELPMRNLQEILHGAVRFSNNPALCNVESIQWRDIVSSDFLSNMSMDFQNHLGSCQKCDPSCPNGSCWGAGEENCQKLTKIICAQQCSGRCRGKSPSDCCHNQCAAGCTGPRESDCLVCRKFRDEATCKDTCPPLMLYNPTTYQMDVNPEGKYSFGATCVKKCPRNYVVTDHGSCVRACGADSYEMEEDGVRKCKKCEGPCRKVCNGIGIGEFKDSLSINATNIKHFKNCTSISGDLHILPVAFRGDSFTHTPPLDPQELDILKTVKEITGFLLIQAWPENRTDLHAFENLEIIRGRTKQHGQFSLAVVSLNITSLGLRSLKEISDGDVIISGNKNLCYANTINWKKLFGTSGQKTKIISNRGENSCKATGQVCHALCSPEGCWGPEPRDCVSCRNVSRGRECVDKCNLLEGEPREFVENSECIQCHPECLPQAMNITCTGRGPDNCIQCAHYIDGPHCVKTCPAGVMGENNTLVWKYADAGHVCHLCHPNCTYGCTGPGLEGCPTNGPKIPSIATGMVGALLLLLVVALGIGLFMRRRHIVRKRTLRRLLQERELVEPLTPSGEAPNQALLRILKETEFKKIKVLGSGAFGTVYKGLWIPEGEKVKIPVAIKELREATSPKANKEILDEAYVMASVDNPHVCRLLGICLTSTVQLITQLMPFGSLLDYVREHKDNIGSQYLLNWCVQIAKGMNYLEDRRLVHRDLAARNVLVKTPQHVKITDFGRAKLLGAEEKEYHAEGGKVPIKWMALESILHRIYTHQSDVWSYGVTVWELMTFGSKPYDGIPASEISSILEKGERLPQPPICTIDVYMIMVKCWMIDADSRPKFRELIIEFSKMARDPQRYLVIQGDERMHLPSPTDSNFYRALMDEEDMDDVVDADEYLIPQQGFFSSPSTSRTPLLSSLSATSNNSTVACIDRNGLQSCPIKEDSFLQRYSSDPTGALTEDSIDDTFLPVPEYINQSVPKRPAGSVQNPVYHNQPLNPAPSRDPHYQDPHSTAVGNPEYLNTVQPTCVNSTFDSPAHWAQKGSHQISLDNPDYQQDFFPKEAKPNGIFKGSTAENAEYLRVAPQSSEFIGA
EGFR Del19/T790M/C797S, sequence (P00533 with tags, fused parts or gaps DEL746-750/T790M/C797S): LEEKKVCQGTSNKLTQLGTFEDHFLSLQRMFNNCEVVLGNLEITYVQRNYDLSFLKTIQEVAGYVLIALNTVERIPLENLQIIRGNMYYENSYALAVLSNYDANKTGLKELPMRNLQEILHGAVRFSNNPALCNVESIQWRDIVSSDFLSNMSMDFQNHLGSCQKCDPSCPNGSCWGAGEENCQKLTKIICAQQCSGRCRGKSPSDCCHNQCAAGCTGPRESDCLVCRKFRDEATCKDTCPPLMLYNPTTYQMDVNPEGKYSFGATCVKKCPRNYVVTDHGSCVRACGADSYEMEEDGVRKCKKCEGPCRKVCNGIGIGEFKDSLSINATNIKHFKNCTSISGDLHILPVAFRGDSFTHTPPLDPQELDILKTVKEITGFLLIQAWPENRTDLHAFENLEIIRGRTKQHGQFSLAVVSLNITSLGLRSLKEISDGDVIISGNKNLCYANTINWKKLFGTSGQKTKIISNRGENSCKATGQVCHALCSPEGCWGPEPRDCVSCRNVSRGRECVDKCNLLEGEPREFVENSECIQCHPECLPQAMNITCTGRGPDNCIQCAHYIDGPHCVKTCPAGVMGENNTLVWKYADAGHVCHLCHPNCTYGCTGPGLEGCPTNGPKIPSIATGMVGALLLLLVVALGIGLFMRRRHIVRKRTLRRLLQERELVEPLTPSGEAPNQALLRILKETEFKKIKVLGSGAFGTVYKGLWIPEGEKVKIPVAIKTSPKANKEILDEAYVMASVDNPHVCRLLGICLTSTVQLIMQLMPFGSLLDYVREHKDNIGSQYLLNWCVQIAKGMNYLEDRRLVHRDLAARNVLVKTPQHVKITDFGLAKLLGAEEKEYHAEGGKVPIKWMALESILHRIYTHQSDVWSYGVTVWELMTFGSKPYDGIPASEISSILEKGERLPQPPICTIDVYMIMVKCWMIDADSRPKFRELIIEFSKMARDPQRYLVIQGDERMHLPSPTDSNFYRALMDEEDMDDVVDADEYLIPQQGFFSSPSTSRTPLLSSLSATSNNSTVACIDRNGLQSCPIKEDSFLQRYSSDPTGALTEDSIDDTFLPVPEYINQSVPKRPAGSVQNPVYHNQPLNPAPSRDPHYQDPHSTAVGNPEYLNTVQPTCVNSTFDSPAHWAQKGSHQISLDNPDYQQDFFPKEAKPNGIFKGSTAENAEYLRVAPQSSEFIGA
EGFR Del19/C797S, sequence (P00533 with tags, fused parts or gaps DEL746-750/C797S): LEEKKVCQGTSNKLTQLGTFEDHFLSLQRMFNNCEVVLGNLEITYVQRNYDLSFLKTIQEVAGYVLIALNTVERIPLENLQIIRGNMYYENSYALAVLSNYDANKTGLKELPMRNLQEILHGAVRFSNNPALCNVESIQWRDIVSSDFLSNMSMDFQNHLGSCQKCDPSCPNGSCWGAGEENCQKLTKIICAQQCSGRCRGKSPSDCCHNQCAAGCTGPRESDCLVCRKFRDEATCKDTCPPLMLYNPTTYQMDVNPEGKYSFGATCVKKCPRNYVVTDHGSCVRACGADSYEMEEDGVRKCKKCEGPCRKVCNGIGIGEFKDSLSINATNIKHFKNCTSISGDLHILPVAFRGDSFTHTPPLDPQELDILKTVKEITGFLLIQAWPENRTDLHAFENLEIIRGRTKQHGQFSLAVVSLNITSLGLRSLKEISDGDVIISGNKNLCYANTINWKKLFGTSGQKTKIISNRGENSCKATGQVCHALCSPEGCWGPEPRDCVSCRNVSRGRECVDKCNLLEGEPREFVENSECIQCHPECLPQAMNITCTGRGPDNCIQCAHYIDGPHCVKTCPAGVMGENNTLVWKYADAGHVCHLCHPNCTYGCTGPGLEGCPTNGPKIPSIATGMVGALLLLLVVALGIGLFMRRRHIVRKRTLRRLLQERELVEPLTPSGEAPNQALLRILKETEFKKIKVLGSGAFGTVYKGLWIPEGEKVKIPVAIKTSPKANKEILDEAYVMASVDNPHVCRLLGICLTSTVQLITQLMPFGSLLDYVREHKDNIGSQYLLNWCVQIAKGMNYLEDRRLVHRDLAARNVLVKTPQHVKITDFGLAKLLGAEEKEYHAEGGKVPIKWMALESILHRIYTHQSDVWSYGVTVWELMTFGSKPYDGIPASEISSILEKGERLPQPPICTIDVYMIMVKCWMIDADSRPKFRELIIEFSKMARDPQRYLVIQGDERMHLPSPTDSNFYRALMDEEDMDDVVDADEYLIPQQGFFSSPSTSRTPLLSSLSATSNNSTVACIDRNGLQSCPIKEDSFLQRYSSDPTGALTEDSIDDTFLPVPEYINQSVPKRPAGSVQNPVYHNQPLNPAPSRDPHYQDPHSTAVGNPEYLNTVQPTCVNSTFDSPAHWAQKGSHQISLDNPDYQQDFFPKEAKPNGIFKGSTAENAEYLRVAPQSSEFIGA

Row | Compound | IC50 [1, 11] | IC50 [2, 12] | IC50 ([3]; IC50 WT (nM), 100 μM ATP) | IC50 [4, 13] | IC50 [5, 14] | other results
1 | Cn1cnc(C#Cc2cnc(Nc3ccnc(-c4cnn(S(=O)(=O)C5CC5)c4)n3)cc2N[C@H]2CC[C@@H](O)CC2)c1 [Example 216, (1s,4s)-4-((2-((2-(1-(Cyclopropylsulfonyl)-1H-pyrazol-4-yl)pyrimidin-4-yl)amino)-5-((1-methyl-1H-imidazol-4-yl)ethynyl)pyridin-4-yl)amino)cyclohexan-1-ol] |  |  |  |  |  | IC50 [1, 6]: 4.9 nM; IC50 [2, 7]: 0.7 nM; IC50 [3, 8]: > 10000 nM; IC50 [4, 9]: 28 nM; IC50 [5, 10]: 0.8 nM
2 | O=S(=O)(C1CC1)n1cc(-c2nccc(Nc3cc(N[C@H]4CC[C@@H](O)CC4)c(C#Cc4ccsc4)cn3)n2)cn1 [Example 217, (1s,4s)-4-((2-((2-(1-(Cyclopropylsulfonyl)-1H-pyrazol-4-yl)pyrimidin-4-yl)amino)-5-(thiophen-3-ylethynyl)pyridin-4-yl)amino)cyclohexan-1-ol] | 28.3 nM | 2.6 nM | > 10000 nM | 238 nM | 14.5 nM | 
3 | CN(C)C(=O)Cn1cc(C#Cc2cnc(Nc3ccnc(-c4cnn(S(=O)(=O)C5CC5)c4)n3)cc2N[C@H]2CC[C@@](C)(O)CC2)cn1 [Example 221, 2-(4-((6-((2-(1-(Cyclopropylsulfonyl)-1H-pyrazol-4-yl)pyrimidin-4-yl)amino)-4-(((1s,4s)-4-hydroxy-4-methylcyclohexyl)amino)pyridin-3-yl)ethynyl)-1H-pyrazol-1-yl)-N,N-dimethylacetamide] |  |  |  |  |  | IC50 [1, 15]: 6.3 nM; IC50 [1, 6]: 8.4 nM; IC50 [2, 16]: 2.9 nM; IC50 [2, 7]: 2 nM; IC50 [3, 17]: 65 nM; IC50 [3, 8]: > 10000 nM; IC50 [4, 18]: 3.8 nM; IC50 [4, 9]: 33 nM; IC50 [5, 19]: 0.8 nM; IC50 [5, 10]: 2.2 nM
4 | Cn1cnc(C#Cc2cnc(Nc3ccnc(-c4cnn(S(=O)(=O)C5CC5)c4)n3)cc2N[C@@H]2CC[C@H](O)C2)c1 [Example 223, (1S,3R)-3-((2-((2-(1-(Cyclopropylsulfonyl)-1H-pyrazol-4-yl)pyrimidin-4-yl)amino)-5-((1-methyl-1H-imidazol-4-yl)ethynyl)pyridin-4-yl)amino)cyclopentan-1-ol] | 6.7 nM | 0.5 nM | > 10000 nM | 44.7 nM | 0.8 nM | 
5 | Cn1cnc(C#Cc2cnc(Nc3ccnc(-c4cnn(S(=O)(=O)C5CC5)c4)n3)cc2NCC(C)(C)CO)c1 [Example 224, 3-((2-((2-(1-(Cyclopropylsulfonyl)-1H-pyrazol-4-yl)pyrimidin-4-yl)amino)-5-((1-methyl-1H-imidazol-4-yl)ethynyl)pyridin-4-yl)amino)-2,2-dimethylpropan-1-ol] | 37.7 nM | 1.8 nM | > 10000 nM | 286 nM | 26.1 nM | 
6 | O=S(=O)(C1CC1)n1cc(-c2nccc(Nc3cc(N[C@H]4CCC[C@H](O)C4)c(C#Cc4ccsc4)cn3)n2)cn1 [Example 225, (1 S,3S)-3-((2-((2-(1-(Cyclopropylsulfonyl)-1H-pyrazol-4-yl)pyrimidin-4-yl)amino)-5-(thiophen-3-ylethynyl)pyridin-4-yl)amino)cyclohexan-1-ol] | 87.8 nM | 6.4 nM | > 10000 nM | 310 nM | 12.3 nM | 
7 | CN1CCN(C2CCN(c3cc(Nc4ccnc(-c5cnn(S(=O)(=O)C6CC6)c5)n4)ncc3C#Cc3ccsc3)CC2)CC1 [Example 226, 2-(1-(Cyclopropylsulfonyl)-1H-pyrazol-4-yl)-N-(4-(4-(4-methylpiperazin-1-yl)piperidin-1-yl)-5-(thiophen-3-ylethynyl)pyridin-2-yl)pyrimidin-4-amine] | 5.1 nM | 1.1 nM | > 10000 nM | 43.4 nM | 1.1 nM | 
8 | O=S(=O)(C1CC1)n1cc(-c2nccc(Nc3cc(N4CCCC(O)C4)c(C#Cc4ccc(N5CCOCC5)nc4)cn3)n2)cn1 (stereo not shown) [Example 227, 1-(2-((2-(1-(Cyclopropylsulfonyl)-1H-pyrazol-4-yl)pyrimidin-4-yl)amino)-5-((6-morpholinopyridin-3-yl)ethynyl)pyridin-4-yl)piperidin-3-ol] | 94.7 nM | 4.6 nM | > 10000 nM | 294 nM | 18.3 nM | 
9 | O=S(=O)(C1CC1)n1cc(-c2nccc(Nc3cc(N4CCC[C@H](O)C4)c(C#Cc4ccsc4)cn3)n2)cn1 [Example 228, (S)-1-(2-((2-(1-(Cyclopropylsulfonyl)-1H-pyrazol-4-yl)pyrimidin-4-yl)amino)-5-(thiophen-3-ylethynyl)pyridin-4-yl)piperidin-3-ol] | 274 nM | 6.2 nM | > 10000 nM | 494 nM | 21.8 nM | 
10 | CC1(C)CN(c2cc(Nc3ccnc(-c4cnn(S(=O)(=O)C5CC5)c4)n3)ncc2C#Cc2ccsc2)CCC1O (stereo not shown) [Example 229, 1-(2-((2-(1-(Cyclopropylsulfonyl)-1H-pyrazol-4-yl)pyrimidin-4-yl)amino)-5-(thiophen-3-ylethynyl)pyridin-4-yl)-3,3-dimethylpiperidin-4-ol] | 175 nM | 8.9 nM | > 10000 nM | 368 nM | 26.9 nM | 
11 | CC(C)(C#Cc1cnc(Nc2ccnc(-c3cnn(S(=O)(=O)C4CC4)c3)n2)cc1N[C@H]1CC[C@@H](O)CC1)N1CCOCC1 [Example 230, (1s,4s)-4-((2-((2-(1-(Cyclopropylsulfonyl)-1H-pyrazol-4-yl)pyrimidin-4-yl)amino)-5-(3-methyl-3-morpholinobut-1-yn-1-yl)pyridin-4-yl)amino)cyclohexan-1-ol] | 1720 nM | 5.9 nM | > 10000 nM | 813 nM | 18.2 nM | 
12 | CC1(CO)CCN(c2cc(Nc3ccnc(-c4cnn(S(=O)(=O)C5CC5)c4)n3)ncc2C#Cc2cnn(CC3CCOCC3)c2)CC1 [Example 231, (1-(2-((2-(1-(Cyclopropylsulfonyl)-1H-pyrazol-4-yl)pyrimidin-4-yl)amino)-5-((1-((tetrahydro-2H-pyran-4-yl)methyl)-1H-pyrazol-4-yl)ethynyl)pyridin-4-yl)-4-methylpiperidin-4-yl)methanol] | 3 nM | 1.6 nM | 968 nM | 4.6 nM | 1.5 nM | IC50 [1, 15]: 1.3 nM; IC50 [2, 16]: 1.7 nM; IC50 [3, 17]: 6.1 nM; IC50 [4, 18]: 1.1 nM; IC50 [5, 19]: 0.9 nM
13 | CC1(CO)CCN(c2cc(Nc3ccnc(-c4cnn(S(=O)(=O)C5CC5)c4)n3)ncc2C#Cc2cnn(CCN3CCOCC3)c2)CC1 [Example 232, (1-(2-((2-(1-(Cyclopropylsulfonyl)-1H-pyrazol-4-yl)pyrimidin-4-yl)amino)-5-((1-(2-morpholinoethyl)-1H-pyrazol-4-yl)ethynyl)pyridin-4-yl)-4-methylpiperidin-4-yl)methanol] | 1.1 nM | 1.3 nM | 719 nM | 5.9 nM | 1.3 nM | IC50 [1, 15]: 0.4 nM; IC50 [2, 16]: 0.8 nM; IC50 [3, 17]: 0.9 nM; IC50 [4, 18]: 0.2 nM; IC50 [5, 19]: 0.5 nM
14 | CC1(CO)CCN(c2cc(Nc3ccnc(-c4cnn(S(=O)(=O)C5CC5)c4)n3)ncc2C#Cc2cnn(CC3CCCOC3)c2)CC1 (stereo not shown) [Example 241, (1-(2-((2-(1-(Cyclopropylsulfonyl)-1H-pyrazol-4-yl)pyrimidin-4-yl)amino)-5-((1-((tetrahydro-2H-pyran-3-yl)methyl)-1H-pyrazol-4-yl)ethynyl)pyridin-4-yl)-4-methylpiperidin-4-yl)methanol] | 1.7 nM | 2.5 nM | 4180 nM | 17.5 nM | 3.9 nM | IC50 [1, 20]: 1.2 nM; IC50 [2, 21]: 2.1 nM; IC50 [3, 22]: 9.1 nM; IC50 [4, 23]: 2.3 nM; IC50 [5, 24]: 0.8 nM
15 | CC1(CO)CCN(c2cc(Nc3ccnc(-c4cnn(S(=O)(=O)C5CC5)c4)n3)ncc2C#Cc2cnn(CC3COCCO3)c2)CC1 (stereo not shown) [Example 242, (1-(5-((1-((1,4-Dioxan-2-yl)methyl)-1H-pyrazol-4-yl)ethynyl)-2-((2-(1-(cyclopropylsulfonyl)-1H-pyrazol-4-yl)pyrimidin-4-yl)amino)pyridin-4-yl)-4-methylpiperidin-4-yl)methanol] | 0.6 nM | 1 nM | 2610 nM | 13.8 nM | 1.6 nM | IC50 [1, 20]: 0.7 nM; IC50 [2, 21]: 0.8 nM; IC50 [3, 22]: 4.6 nM; IC50 [4, 23]: 1 nM; IC50 [5, 24]: 0.4 nM

Source: patent publication US11981658B2, “Substituted aminopyridine compounds as EGFR inhibitors” (YUHAN CORPORATION, priority 2021, dated 2024)
